# Assays:
# [1] = test system: E. coli BW25113 overexpression strains (ASKA plasmids); experiment: Minimum inhibitory concentration (MIC), serial broth dilution, single-gene overexpression strains vs empty-vector control; assay type: cell-based, Escherichia coli; conditions: MIC of overexpression strain / MIC of empty-plasmid control, broth dilution, MS medium, 100 µM IPTG, 30 °C, 20-24 h, OD600, 3 replicates
# Method in brief: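 E. coli overexpression strains grown in MS medium with chloramphenicol, induced with 100 µM IPTG for 1 h at 30 °C, then about half-million cells inoculated into 12-step AMP dilutions (typically 1.2-fold steps). OD600 read after 20–24 h at 30 °C with shaking; triplicate strains compared with empty-vector control.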
# [2] = test system: AMP-evolved E. coli lines; experiment: Cross-resistance / collateral sensitivity: relative MIC change of 38 laboratory-evolved AMP-resistant lines vs parental strain; assay type: cell-based, Escherichia coli; conditions: measured here
# From the text: Here, we extended this dataset by measuring susceptibility changes of the same evolved lines to four additional AMPs using identical protocols to represent AMPs from all four clusters (Supplementary Fig. 15a, see also Methods). Overall, the resulting dataset of susceptibility profiles provides a comprehensive map of cross-resistance and collateral sensitivity between AMPs representing various modes of action.
# To characterize the cross-resistance of the 38 E. coli lineages we obtained relative MIC changes that are, the MIC values of the evolved lines compared to these of the parental strain, from two data sources. First, we used already measured relative MIC changes from Spohn et al. Supplementary data 4[20]. […] Second, we extended this dataset by measuring the relative MIC changes of the same evolved lines to four additional AMPs using identical protocol. […] In this way, AMPs from each cluster were represented in the dataset.
# Supplementary Figure 15. […] Relative change in MIC was determined for each evolved line by comparing its MIC to the ancestral cell line (control). […] CAP18-adaped lines were not included in the analysis because CAP18 is known as a membrane-targeting AMP in the literature. c, Cross-resistance interactions are enriched between membrane-targeting AMPs that are in the same chemical-genetic clusters (i.e. AMP pairs within C1 and within C2 clusters) (Significant difference: ** P = 0.0082 from two-sided Fisher’s exact test, n = 61 and 62 for within cluster and between clusters, respectively). […] Source data are provided as a Source Data file.
# [3] = test system: bacterial species in which the gene showed activity; conditions: Salmonella enterica serovar Typhimurium; ref http://aac.asm.org/content/52/8/2734.full.pdf+html; cited from earlier work
sequence,measurement,setting,value
"RRRPRPPYLPRPRPPPFFPPRLPPRIPPGFPPRFPPRFP [PR39, PR-39, cathelicidin, source pig; cluster C4]",Relative MIC,[1]; overexpression strain cvpA,0.8
same,Relative MIC,[1]; overexpression strain gadW,1.32
same,Relative MIC,[1]; overexpression strain mhpA,0.78
same,Relative MIC,[1]; overexpression strain mzrA,0.8
same,Relative MIC,[1]; overexpression strain nikB,0.8
same,Relative MIC,[1]; overexpression strain uhpC,1.25
same,Relative change in MIC (MIC of the AMP-adpated line / MIC of the ancestral strain),[2]; AMP-adapted line BAC5_3,1.32
same,Relative change in MIC (MIC of the AMP-adpated line / MIC of the ancestral strain),[2]; AMP-adapted line BAC5_5,1.464
same,Relative change in MIC (MIC of the AMP-adpated line / MIC of the ancestral strain),[2]; AMP-adapted line BAC5_7,1.584
same,Relative change in MIC (MIC of the AMP-adpated line / MIC of the ancestral strain),[2]; AMP-adapted line BAC5_10,1.57
same,Relative change in MIC (MIC of the AMP-adpated line / MIC of the ancestral strain),[2]; AMP-adapted line CAP18_2,1
same,Relative change in MIC (MIC of the AMP-adpated line / MIC of the ancestral strain),[2]; AMP-adapted line CAP18_5,0.915
same,Relative change in MIC (MIC of the AMP-adpated line / MIC of the ancestral strain),[2]; AMP-adapted line CAP18_6,0.83
same,Relative change in MIC (MIC of the AMP-adpated line / MIC of the ancestral strain),[2]; AMP-adapted line CAP18_8,1
same,Relative change in MIC (MIC of the AMP-adpated line / MIC of the ancestral strain),[2]; AMP-adapted line CAP18_10,0.83
same,Relative change in MIC (MIC of the AMP-adpated line / MIC of the ancestral strain),[2]; AMP-adapted line HBD3_3,1
same,Relative change in MIC (MIC of the AMP-adpated line / MIC of the ancestral strain),[2]; AMP-adapted line HBD3_6,0.915
same,Relative change in MIC (MIC of the AMP-adpated line / MIC of the ancestral strain),[2]; AMP-adapted line HBD3_8,1.1
same,Relative change in MIC (MIC of the AMP-adpated line / MIC of the ancestral strain),[2]; AMP-adapted line HBD3_10,1.1
same,Relative change in MIC (MIC of the AMP-adpated line / MIC of the ancestral strain),[2]; AMP-adapted line LL37_1,1.1
same,Relative change in MIC (MIC of the AMP-adpated line / MIC of the ancestral strain),[2]; AMP-adapted line LL37_3,1.1
same,Relative change in MIC (MIC of the AMP-adpated line / MIC of the ancestral strain),[2]; AMP-adapted line LL37_6,1.1
same,Relative change in MIC (MIC of the AMP-adpated line / MIC of the ancestral strain),[2]; AMP-adapted line LL37_7,1.2
same,Relative change in MIC (MIC of the AMP-adpated line / MIC of the ancestral strain),[2]; AMP-adapted line LL37_10,0.915
same,Relative change in MIC (MIC of the AMP-adpated line / MIC of the ancestral strain),[2]; AMP-adapted line PEX_1,1
same,Relative change in MIC (MIC of the AMP-adpated line / MIC of the ancestral strain),[2]; AMP-adapted line PEX_4,1
same,Relative change in MIC (MIC of the AMP-adpated line / MIC of the ancestral strain),[2]; AMP-adapted line PEX_5,0.915
same,Relative change in MIC (MIC of the AMP-adpated line / MIC of the ancestral strain),[2]; AMP-adapted line PEX_6,1
same,Relative change in MIC (MIC of the AMP-adpated line / MIC of the ancestral strain),[2]; AMP-adapted line PEX_7,1
same,Relative change in MIC (MIC of the AMP-adpated line / MIC of the ancestral strain),[2]; AMP-adapted line PROA_2,1
same,Relative change in MIC (MIC of the AMP-adpated line / MIC of the ancestral strain),[2]; AMP-adapted line PROA_3,0.915
same,Relative change in MIC (MIC of the AMP-adpated line / MIC of the ancestral strain),[2]; AMP-adapted line PROA_7,1
same,Relative change in MIC (MIC of the AMP-adpated line / MIC of the ancestral strain),[2]; AMP-adapted line PROA_8,1
same,Relative change in MIC (MIC of the AMP-adpated line / MIC of the ancestral strain),[2]; AMP-adapted line PROA_9,1
same,Relative change in MIC (MIC of the AMP-adpated line / MIC of the ancestral strain),[2]; AMP-adapted line PXB_2,1.728
same,Relative change in MIC (MIC of the AMP-adpated line / MIC of the ancestral strain),[2]; AMP-adapted line PXB_5,1.44
same,Relative change in MIC (MIC of the AMP-adpated line / MIC of the ancestral strain),[2]; AMP-adapted line PXB_6,1.728
same,Relative change in MIC (MIC of the AMP-adpated line / MIC of the ancestral strain),[2]; AMP-adapted line PXB_8,1.44
same,Relative change in MIC (MIC of the AMP-adpated line / MIC of the ancestral strain),[2]; AMP-adapted line PXB_10,1
same,Gene that modulates bacterial susceptibility to the AMP,[3],sbmA
